Values joined by “and” are separate entries in the source; they are usually repeats but may differ in a detail not shown here. Identical values can stand only once.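 Five concentrations, 48 hours, 96-well plates. The concentration for 50% growth inhibition is given as GI50. Definition used: TGI = concentration required for complete inhibition of growth.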
Test system: MDA-MB-468 breast
Experiment: NCI tumour cell line growth inhibition, 48 h

Q: `Cc1cc(C(=O)Nc2nc3cccc(Cl)c3n2[C@@H]2CCCCN(C(=O)/C=C/CN(C)C)C2)ccn1` was tested. Which GI50 did it give?
A: Its GI50 is 0.102 µM.

Q: What about the TGI of the same compound?
A: The TGI was 1.27 µM.

Q: Which GI50 does the source give for `O=C(CCCCCCCn1cc(-c2cccnc2)nn1)Nc1ccccc1-c1ccccc1` here?
A: Its GI50 is 4.74 µM.

Q: And the TGI?
A: The TGI was > 51.6 µM.

Q: Which GI50 does the source give for `Cc1ccc(S(=O)(=O)Oc2ccc([N+](=O)[O-])cc2[N+](=O)[O-])cc1` here?
A: The GI50 was 13.2 µM.

Q: What about the TGI of the same compound?
A: The TGI was 28.4 µM.

Q: Which results are given for `CCN(CC)CCCC(C)Nc1cc(-c2ccc(C(F)(F)F)cc2)c(C#N)c2nc3ccccc3n12` (stereo unspecified)?
A: GI50: 1.75 µM; TGI: 3.35 µM

Q: Which GI50 does the source give for `N#Cc1nc(-c2ccccc2)oc1S(=O)(=O)N1CCCCC1` here?
A: The GI50 was 10.2 µM.

Q: What about the TGI of the same compound?
A: The TGI was 28.5 µM.

Q: What does the source list for `CCN1C(=O)N(CC)C2C1NN=c1s/c(=C\c3ccccc3F)c(=O)n12` (stereo unspecified)?
A: GI50: 0.027 µM; TGI: > 48.1 µM

Q: How did the GI50 turn out when `COC(=O)[C@H]1[C@@H](O)[C@@]2(O)c3c(OC)cc(O[C@@H]4O[C@@H]([C@H](O)CO)CO[C@H]4OC)cc3O[C@@]2(c2ccc(OC)cc2)[C@@H]1c1ccccc1` was run?
A: Its GI50 is 0.00293 µM.

Q: And the TGI?
A: Its TGI is 0.0112 µM.

Q: What does the source list for `Cc1ccc2c(c1)C(C)Cc1c(ncnc1-n1cnc3cc(C)ccc31)N2C` (stereo unspecified)?
A: GI50: 0.0414 µM; TGI: 19 µM

Q: Which GI50 does the source give for `O=C1CC2(CCOCC2)Oc2ncccc21` here?
A: The GI50 was 3.23 µM.

Q: What about the TGI of the same compound?
A: The TGI was 15.3 µM.

Q: How did the GI50 turn out when `O=Nc1ccc(O)c2ccccc12` was run?
A: Its GI50 is 5.85 µM.

Q: And the TGI?
A: Its TGI is 27.4 µM.

Q: With `COC(=O)[C@H]1C(=O)[C@@]2(C)[C@H]([C@H](OC(=O)c3ccccc3)[C@]3(O)C[C@H](OC(=O)[C@H](O)[C@@H](NC(=O)c4ccc(F)cc4)c4ccccc4)C(C)=C1C3(C)C)[C@]1(OC(C)=O)CO[C@@H]1C[C@@H]2O` as the compound, how does the GI50 read?
A: The GI50 was 0.00874 µM.

Q: What about the TGI of the same compound?
A: The TGI was 6.46 µM.

Q: With `C=C(C)[C@@H]1CC[C@]2(C(N)=O)CC[C@]3(C)[C@H](CC[C@@H]4[C@@]5(C)CC[C@H](O)C(C)(C)[C@@H]5CC[C@]43C)[C@@H]12` as the compound, how does the GI50 read?
A: The GI50 was 3.2 µM.

Q: And the TGI?
A: The TGI was 11.9 µM.

Q: What does the source list for `O=C1OC2C(O)COC2(O)C1(O)C(C[N+](=O)[O-])c1ccc(Cl)cc1` (stereo unspecified)?
A: GI50: 16.9 µM; TGI: 44 µM

Q: For `COc1cccc(Cn2c(-c3nonc3N)nc3ccccc32)c1`, which GI50 is on record?
A: The GI50 was 0.312 µM.

Q: Which GI50 does the source give for `COc1ccc(CCN2CCCN3C2=Nc2ccccc2S3(=O)=O)cc1` here?
A: The GI50 was 0.312 µM.

Q: What about the TGI of the same compound?
A: Its TGI is > 100 µM.

Q: What does the source list for `NC(=O)C1c2ccccc2C=Cc2ccccc21`?
A: GI50: 78.6 µM; TGI: > 100 µM

Q: For `C[C@@H](N)C1CCC(C(=O)Nc2ccncc2)CC1` (stereo partly specified), which GI50 is on record?
A: Its GI50 is > 100 µM.

Q: And the TGI?
A: The TGI was > 100 µM.

Q: What does the source list for `CCC(CC)n1c(=O)c(SC2=NC3C(NN2)N(CC)C(=O)N3CC)c(C(=O)O)c2ccccc21` (stereo unspecified)?
A: GI50: 0.92 µM; TGI: 27.8 µM

Q: `CN[C@@H](C)C(=O)N[C@H]1CN(C(=O)CC(C)C)CC[C@H]2CC[C@@H](C(=O)NC(c3ccccc3)c3ccccc3)N2C1=O` was tested. Which GI50 did it give?
A: Its GI50 is 39.2 µM.

Q: What about the TGI of the same compound?
A: The TGI was > 100 µM.

Q: What does the source list for `O=C1/C=C/[C@@H](O)[C@@H]2C[C@@H](O)C[C@H]2/C=C/CCC[C@H](CCc2ccc(C(F)(F)F)cc2)O1`?
A: GI50: 0.0281 µM; TGI: 0.0829 µM

Q: What does the source list for `COc1ccccc1/C=C/C(=O)c1c(O)cc2occc2c1OC`?
A: GI50: 10.3 µM; TGI: 45.5 µM

Q: `COc1cc2c(F)nccc2cc1C(=O)N[C@@H](c1ccc(F)c(Cl)c1)[C@@H]1C[C@@H](O)CN1` was tested. Which GI50 did it give?
A: Its GI50 is 0.0527 µM.

Q: What about the TGI of the same compound?
A: The TGI was 2.33 µM.

Q: With `Nc1ccccc1SC(CC(=O)c1ccccc1)c1ccc([N+](=O)[O-])cc1` (stereo unspecified) as the compound, how does the GI50 read?
A: The GI50 was 14.4 µM.

Q: And the TGI?
A: Its TGI is 31 µM.

Q: For `COc1cc(-c2nc(NC(C)=O)sc2-c2ccnc(NCCNS(=O)(=O)c3ccccc3)n2)ccc1Cl`, which GI50 is on record?
A: The GI50 was 2.56 µM.

Q: And the TGI?
A: The TGI was 9.61 µM.

Q: With `CCNCCC1(CC)C(=O)NC(=O)NC1=O` as the compound, how does the GI50 read?
A: Its GI50 is > 100 µM.

Q: And the TGI?
A: Its TGI is > 100 µM.

Q: `O=C1Oc2ccccc2C(=O)/C1=C/N1C(=O)/C(=C/c2ccc3c(c2)OCO3)SC1=S` was tested. Which GI50 did it give?
A: The GI50 was 12.1 µM.

Q: What about the TGI of the same compound?
A: The TGI was 42 µM.

Q: With `COc1ccccc1-c1cc(/C=C2\C(=O)Nc3ncc(Br)cc32)cc(Br)c1O` as the compound, how does the GI50 read?
A: Its GI50 is 7.4 µM.

Q: And the TGI?
A: The TGI was > 25 µM.

Q: How did the GI50 turn out when `Cc1ncc(C(=O)Nc2ccc(CN3CCN(C)CC3)c(C(F)(F)F)c2)cc1C#Cc1cnc(N)c2cnccc12` was run?
A: Its GI50 is 0.169 µM.

Q: And the TGI?
A: The TGI was 1.69 µM.

Q: Which results are given for `O=C(N/N=C/c1ccccc1O)C(O)(c1ccccc1)c1ccccc1`?
A: GI50: 4.62 µM; TGI: > 100 µM

Q: With `CC(C)CC1C(=O)N2CCC[C@H]2C2(O)O[C@](NC(=O)C3C=C4c5cccc6[nH]c(Br)c(c56)C[C@H]4N(C)C3)(C(C)C)C(=O)N12` (stereo partly specified) as the compound, how does the GI50 read?
A: The GI50 was 3.09 µM.

Q: What about the TGI of the same compound?
A: Its TGI is 39.3 µM.

Q: Which GI50 does the source give for `Cc1cccc(-c2nn3c(c2-c2ccnc4ccc(C(N)=O)cc24)CCC3)n1` here?
A: Its GI50 is > 100 µM.

Q: What about the TGI of the same compound?
A: The TGI was > 100 µM.

Q: For `CCCCCCCCCCCCNC(=O)[C@H]1CSC(c2cc3ccccc3s2)N1` (stereo partly specified), which GI50 is on record?
A: The GI50 was 1.09 µM.

Q: And the TGI?
A: The TGI was 4.11 µM.

Q: With `CN1CCC(CNc2ccc3ncc(-c4cccc(OC(F)(F)F)c4)n3n2)CC1` as the compound, how does the GI50 read?
A: The GI50 was 1.24 µM and 1.11 µM.

Q: And the TGI?
A: Its TGI is 2.74 µM and 3.28 µM.

Q: For `O=C(c1ccc(OCCN2CCCCC2)cc1)c1c(-c2ccc(O)cc2)sc2cc(O)ccc12`, which GI50 is on record?
A: The GI50 was 3.04 µM and 3.13 µM.

Q: And the TGI?
A: The TGI was 15.8 µM and 12.2 µM.

Q: Which results are given for `Cn1cc(-c2csc(-c3cn(C)c4ccc(Br)cc34)n2)c2cnccc21`?
A: GI50: 1.79 µM; TGI: 3.46 µM

Q: How did the GI50 turn out when `O=C1/C(=C\c2ccc(F)cc2)CN(C(=O)c2ccc([N+](=O)[O-])cc2)C/C1=C\c1ccc(F)cc1` was run?
A: The GI50 was 1.38 µM.

Q: And the TGI?
A: The TGI was 3.68 µM.

Q: Which results are given for `NC(=NCCCC1(c2ccccc2)CCCC1)Nc1ccc(Cl)cc1`?
A: GI50: 1.65 µM; TGI: 3.25 µM

Q: `COc1ccc(-c2nsc3c2NC(=O)CC3c2ccc(F)cc2)cc1` (stereo unspecified) was tested. Which GI50 did it give?
A: The GI50 was 2.18 µM.

Q: And the TGI?
A: Its TGI is > 30 µM.

Q: How did the GI50 turn out when `CC(C)CCSC1=CC(=O)c2ccccc2C1=O` was run?
A: The GI50 was 0.43 µM.

Q: What about the TGI of the same compound?
A: The TGI was 2.19 µM.

Q: Which results are given for `CNC(=O)c1c(NC(=O)c2ccc(C(F)(F)F)cc2)sc2c1CCC(=O)C2`?
A: GI50: 0.924 µM; TGI: 3.8 µM

Q: For `C/C1=C/C(=O)O[C@@H]2C[C@@H](CC[C@H](C)/C=C\C=C\CC1)O[C@@](O)([C@@H]1CSC(=O)N1CO)C2`, which GI50 is on record?
A: The GI50 was 0.0243 µM.

Q: What about the TGI of the same compound?
A: The TGI was 0.0765 µM.

— PubChem BioAssay (NCI)
